Data: patent EP0278997A1, “Azapropazone rectal capsules” (SIEGFRIED AKTIENGESELLSCHAFT, priority 1987, dated 1988)
Where “and” joins values, the source holds several entries; their conditions need not be identical. Equal values may be shown once. Read-outs that look alike come from different tables or passages of the source.

Experiment: Bioavailability of the rectal capsule versus i.v. administration (plasma AUC 0-72) in test subjects
Format: in vivo
Conditions: for AUC at 72 h: human, plasma, iv, read-out: A U C 0 - 72

- AUC at 72 h (geometric mean (geom.x) of 6 Probanden): 1060 µg·h/mL
- AUC at 72 h (mean (x) of 6 Probanden): 1080 µg·h/mL
Structure (SMILES): CCCC1C(=O)N2C(N(C)C)=Nc3ccc(C)cc3N2C1=O (stereo not drawn) [Azapropazon, 3-Dimethyl-amino-7-methyl-1,2-(n-propyimaionyi)-1,2-dihydro-1,2.4-benzotriazin]
- A U C 0 - 72 (individual Proband, 4320 min): 926.46 mcg/ml.Std and 728.31 mcg/ml.Std and 1158.02 mcg/ml.Std and 964.71 mcg/ml.Std and 1466.56 mcg/ml.Std and 1252.36 mcg/ml.Std
